In assay [1] the target is T1, Sirt1 (Homo sapiens, UniProt Q96EB6).
T1 sequence (Q96EB6 1-747): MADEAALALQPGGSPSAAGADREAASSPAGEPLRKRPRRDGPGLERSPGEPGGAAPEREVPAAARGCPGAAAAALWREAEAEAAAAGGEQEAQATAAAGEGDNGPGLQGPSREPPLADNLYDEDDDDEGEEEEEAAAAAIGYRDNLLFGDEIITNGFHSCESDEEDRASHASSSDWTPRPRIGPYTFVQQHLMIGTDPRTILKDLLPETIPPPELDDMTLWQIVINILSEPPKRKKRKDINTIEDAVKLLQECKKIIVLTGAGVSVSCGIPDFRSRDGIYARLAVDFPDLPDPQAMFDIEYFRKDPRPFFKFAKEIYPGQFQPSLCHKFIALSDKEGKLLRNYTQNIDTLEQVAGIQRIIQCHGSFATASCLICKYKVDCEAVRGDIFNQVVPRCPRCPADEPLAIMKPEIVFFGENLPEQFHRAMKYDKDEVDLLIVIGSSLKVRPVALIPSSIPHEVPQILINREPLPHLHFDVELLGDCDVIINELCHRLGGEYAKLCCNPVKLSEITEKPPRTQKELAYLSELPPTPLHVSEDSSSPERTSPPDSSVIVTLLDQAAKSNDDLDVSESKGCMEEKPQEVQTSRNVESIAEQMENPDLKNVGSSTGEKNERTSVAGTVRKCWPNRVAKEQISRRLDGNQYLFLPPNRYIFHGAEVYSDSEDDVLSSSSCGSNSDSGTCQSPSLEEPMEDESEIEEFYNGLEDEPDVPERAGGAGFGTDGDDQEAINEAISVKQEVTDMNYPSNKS
Kind of assay: Enzyme-based Sirt1 inhibition assay at 10 μM. It is filed as biochemical. To be noted: for % inhibition at 10 μM Sirt1: mean of three independent experiments; for inhibition at 10 µM: read-out: % inhibition at 10 μM Sirt1, 10 μM, mean of three independent experiments.

Assay [2] concerns the target T1, Sirt1. The experiment in a line: Cell-based Sirt1 inhibition in HepG2 cells. To be noted: HepG2, read-out: % Inhibition Sirt1, HepG2 cells, 10 μM, 6 h; n = 3.
The next assay concerns Sirt2 + Sirt3. Kind of assay: Cell-based Sirt2/Sirt3 joint inhibition in HepG2 cells. More on the design: species or system human. To be noted: 10 μM, 6 h.
Another assay deals with HepG2 cells. The experiment in a line: MTT cell viability assay, HepG2. To be noted: 1-400 μM, 24 h. It is filed as cell-based, human. Background: Tetrazolium dyes change colour on reduction, which living cells bring about.
The next assay has as its system MCF7 cells. Kind of assay: MTT cell viability assay, MCF7. It is filed as cell-based, human. To be noted: 1-400 μM, 24 h.
The subject of another assay is Ac-p53 in HepG2 cells. Kind of assay: Western blotting for acetylated p53. It is filed as cell-based, human. To be noted: 25 μM, 48 h, western blot. (A western blot detects proteins with antibodies after separation by electrophoresis.)
Assay [3] addresses T1, Sirt1. The experiment in a line: Concentration-dependent Sirt1 inhibition.
Where [4] appears, read: joint inhibition of Sirt2 and Sirt3, n = 3, 10 µM.

Data on 18 molecules can be found in publication PMC8981170 (RSC Advances, 2022).

Each structure is given as a SMILES string. Several values for one entry are separate records, joined by “and”; a condition that tells them apart may be missing. Equal entries are not always repeated.

Turning to `O=C(O)[C@H](Cc1c[nH]c2ccccc12)N1C(=O)C(=Cc2c[nH]nc2-c2ccc([N+](=O)[O-])cc2)SC1=S` [Compound 13l], on Sirt1 [1], the “% inhibition at 10 μM Sirt1” value came out at 89.64% and the inhibition at 10 µM was greater than 80%. In addition, the inhibition at 10 µM at Sirt1 [2] was no less than 30%. Moreover, the “% Inhibition Sirt2 + Sirt3” value in the assay with Sirt2 + Sirt3 (setting [4]) was 9% and 9.47 ± 0.92%. Also, the “Effect on HepG2 cell viability” value in the assay with HepG2 cells is “very less decrease in cell viability”. Also, in the assay on MCF7 cells, the “Effect on MCF7 cell viability” value was “no significant changes in cell viability”. Further, in the assay on Ac-p53 in HepG2 cells, the “Ac-p53 levels in HepG2 cells” value is “no major change”. This molecule also returned a half-maximal inhibitory concentration (IC50) against Sirt1 [3] of 730 ± 60 nM.

Regarding `COc1ccc(-c2nc3cc(C(=O)N[C@H](C(=O)O)C(C)C)ccc3n2C2CCCCC2)cc1` [Compound 7b], at Sirt1 [1], the “% inhibition at 10 μM Sirt1” value was 88.18%. In addition, the inhibition at 10 µM on Sirt1 [1] is greater than 80%; on Sirt1 [2], less than 1%.

Take `C[C@H](NC(=O)c1ccc2c(c1)nc(-c1ccc(F)cc1)n2C1CCCCC1)C(=O)O` [Compound 7e]: on Sirt1 [1], the inhibition at 10 µM was less than 30%.

Consider `COc1ccc(-c2nc3cc(C(=O)N[C@@H](Cc4c[nH]c5ccccc45)C(=O)O)ccc3n2C2CCCCC2)cc1` [Compound 7d], for which, on Sirt1 [1], the “% inhibition at 10 μM Sirt1” value came out at 89.99% and the inhibition at 10 µM is greater than 80%. In addition, at Sirt1 [2], the inhibition at 10 µM was no less than 30%. Also, the “% Inhibition Sirt2 + Sirt3” value with Sirt2 + Sirt3 (setting [4]) is 19% and 20% and 19.89 ± 0.89%. In addition, the “Effect on HepG2 cell viability” value in the assay with HepG2 cells is “continuous decrease in cell viability with increasing inhibitor concentration”. The “Effect on MCF7 cell viability” value in the assay with MCF7 cells is “continuous and comparatively higher decrease in cell viability with increasing inhibitor concentration”. For the same molecule, the “Ac-p53 levels in HepG2 cells” value in the assay with Ac-p53 in HepG2 cells is reported as “increased the Ac-p53 levels in HepG2 cells comparable to the positive control”. On Sirt1 [3], this molecule gave an IC50 of 770 ± 40 nM.

Consider `O=C(N[C@@H](Cc1c[nH]c2ccccc12)C(=O)O)c1ccc2c(c1)nc(-c1ccc(F)cc1)n2C1CCCCC1` [Compound 7h], for which the inhibition at 10 µM on Sirt1 [1] is 86.8%; at Sirt1 [2], less than 1%.

Regarding `COc1ccc(-c2n[nH]cc2C=C2SC(=S)N([C@@H](C)C(=O)O)C2=O)cc1` [Compound 13b], the inhibition at 10 µM on Sirt1 [1] was less than 30%.

In the case of `O=C(O)[C@H](Cc1ccccc1)N1C(=O)C(=Cc2c[nH]nc2-c2ccc([N+](=O)[O-])cc2)SC1=S` [Compound 13k], the inhibition at 10 µM on Sirt1 [1] is less than 30%.

For the molecule `C[C@@H](C(=O)O)N1C(=O)C(=Cc2c[nH]nc2-c2cc(F)cc(F)c2)SC1=S` [Compound 13f], on Sirt1 [1], the inhibition at 10 µM was less than 30%.

As for `CC(C)[C@H](NC(=O)c1ccc2c(c1)nc(-c1ccc(F)cc1)n2C1CCCCC1)C(=O)O` [Compound 7f], on Sirt1 [1], the inhibition at 10 µM is less than 30%.

`COc1ccc(-c2nc3cc(C(=O)N[C@@H](CC(C)C)C(=O)O)ccc3n2C2CCCCC2)cc1` [Compound 7c]: the “% inhibition at 10 μM Sirt1” value on Sirt1 [1] is on record as 86.34%. Further, the results for the inhibition at 10 µM at Sirt1 [1] and at Sirt1 [2] were greater than 80% and 3.24 ± 0.27%, respectively. Further, in the assay on Sirt2 + Sirt3 (joint inhibition of Sirt2 and Sirt3, n = 3), the “% Inhibition Sirt2 + Sirt3” value is recorded as 5.21 ± 0.78%.

In the case of `O=C(O)[C@H](Cc1c[nH]c2ccccc12)N1C(=O)C(=Cc2c[nH]nc2-c2cc(F)cc(F)c2)SC1=S` [Compound 13h], on Sirt1 [1], the “% inhibition at 10 μM Sirt1” value was determined as 89.15% and the inhibition at 10 µM was greater than 80%. Besides, at Sirt1 [2], the inhibition at 10 µM is no less than 30%. For the same molecule, the “% Inhibition Sirt2 + Sirt3” value with Sirt2 + Sirt3 (setting [4]) is 10% and 9.53 ± 0.65%. The “Effect on HepG2 cell viability” value with HepG2 cells was “very less decrease in cell viability”. In addition, in the assay on MCF7 cells, the “Effect on MCF7 cell viability” value is given as “no significant changes in cell viability”. Besides, the “Ac-p53 levels in HepG2 cells” value in the assay on Ac-p53 in HepG2 cells is on record as “no major change”. On Sirt1 [3], the IC50 was determined as 660 ± 20 nM.

For the molecule `CC(C)C[C@H](NC(=O)c1ccc2c(c1)nc(-c1ccc(F)cc1)n2C1CCCCC1)C(=O)O` [Compound 7g], the inhibition at 10 µM on Sirt1 [1] is 80.8%; at Sirt1 [2], less than 1%.

Regarding `COc1ccc(-c2n[nH]cc2C=C2SC(=S)N([C@@H](Cc3c[nH]c4ccccc34)C(=O)O)C2=O)cc1` [Compound 13d], on Sirt1 [1], the “% inhibition at 10 μM Sirt1” value amounted to 90.64% and the inhibition at 10 µM was greater than 80%. For the same molecule, on Sirt1 [2], the inhibition at 10 µM is no less than 30%. The “% Inhibition Sirt2 + Sirt3” value with Sirt2 + Sirt3 (setting [4]) was 6% and 6.04 ± 0.91%. Further, the “Effect on MCF7 cell viability” value in the assay on MCF7 cells is listed as “no significant changes in cell viability”. Also, the “Ac-p53 levels in HepG2 cells” value in the assay with Ac-p53 in HepG2 cells is listed as “no major change”. For the same molecule, at Sirt1 [3], the midpoint of inhibition, the IC50, lay at 710 ± 30 nM.

Turning to `COc1ccc(-c2n[nH]cc2C=C2SC(=S)N([C@@H](Cc3ccccc3)C(=O)O)C2=O)cc1` [Compound 13c], the inhibition at 10 µM at Sirt1 [1] was less than 30%.

In the case of `COc1ccc(-c2nc3cc(C(=O)N[C@@H](C)C(=O)O)ccc3n2C2CCCCC2)cc1` [Compound 7a], at Sirt1 [1], the “% inhibition at 10 μM Sirt1” value is recorded as 88.03% and the inhibition at 10 µM was greater than 80%. Further, the inhibition at 10 µM on Sirt1 [2] is less than 1%.

For `O=C(O)[C@H](Cc1ccccc1)N1C(=O)C(=Cc2c[nH]nc2-c2cc(F)cc(F)c2)SC1=S` [Compound 13g], the inhibition at 10 µM at Sirt1 [1] is less than 30%.

In the case of `O=C(N[C@@H](Cc1c[nH]c2ccccc12)C(=O)O)c1ccc2c(c1)nc(-c1c(F)cccc1Cl)n2C1CCCCC1` [Compound 7l], the inhibition at 10 µM at Sirt1 [1] was less than 30%.

In the case of `C[C@@H](C(=O)O)N1C(=O)C(=Cc2c[nH]nc2-c2ccc([N+](=O)[O-])cc2)SC1=S` [Compound 13j], the inhibition at 10 µM on Sirt1 [1] is less than 30%.

The % inhibition is the percentage by which the read-out fell short of the control. Higher therefore signals a response far below the control. A word on the inhibition: it is the drop in the measured response relative to a control, in per cent. As a reminder, the IC50 is the concentration at which inhibition is half-maximal. Lower therefore signals greater potency.
